Consider eleven compounds from US8367835B2, “Cyclic amine-1-carboxylic acid ester derivative and pharmaceutical composition containing the same” (Dainippon Sumitomo Pharma Co., Ltd., priority 2008, dated 2013).

SMILES strings stand for the structures. Read-outs that look alike come from different tables or passages of the source.

Data set [1] has as its system mechanical hyperalgesia in a neuropathic pain model (rat Chung model). Briefly: Analgesic effect: von Frey filament test using rat Chung model, transdermal administration. The conditions noted are these: 0.1% formulation applied transdermally to plantar surface of left hindlimb once a day for 2 weeks; measured on the day after last administration; pre-administration value = 100%. Format: in vivo. As for the experimental part:
The present test is to measure the analgesic effect based on the improvement level of the mechanical hyperalgesia in a neuropathic pain model as the indicator by transdermally administering the compound of the present invention and was carried out in accordance with the method of Kim and Chung [Pain, 50, 355-363 (1992)] or the method of Tsuda et al. [Nature, 424, 778-783, 2003].
Specifically, using Jcl: Wistar male rat (7 to 9 rats/group, 5 weeks of age at the time of surgery), spinal nerves were injured to induce hyperalgesia and the withdrawal threshold was measured using the von Frey filament. In the surgery, under Pentobarbital anesthesia, the left L5 spinal nerve was exposed, ligated near the spinal cord using a silk suture (5-0) and transected just peripheral to the ligation. After suturing the incision and keeping the rats for 2 weeks, the rats were subjected to the von Frey filament test. The measurement of the mechanical hyperalgesia was carried out by applying von Frey filaments (1.0, 2.0, 4.0, 8.0, 15.0 g) to the plantar surface of the left hindlimb, and the filament intensity at which 50% or higher withdrawal behavior was observed was defined as the withdrawal threshold.
After dissolving the test compounds in a mixture of Tween 80 and ethanol, the obtained solution was mixed with a hydrophilic ointment to prepare a formulation having a concentration of 0.1%. The withdrawal threshold before administering the test compound was measured to define the pre-administration value (100%). Thereafter, once a day, for 2 weeks, the formulation having a concentration of 0.1% was transdermally administered (applied) to the plantar surface of the left hindlimb, the von Frey filament test was carried out on the following day of the last administration to measure the post-administration value. Further, the same formulation as above but free of the test compound was prepared as a vehicle control and the same test was carried out.
The analgesic effect is a relative ratio when a test compound pre-administration value calculated using the following numerical formula is 100%. The pre-administration withdrawal threshold was 3.3±0.1 g (119 cases) (the withdrawal threshold of sham-operated rat was 10 to 15 g). %=(test compound post-administration withdrawal threshold value/pre-administration withdrawal threshold value)×100

The test system is the same in data set [2]. The data set can be described thus: Analgesic effect in combination with Pregabalin: von Frey filament test using rat Chung model, i.pl. administration. It counts as in vivo. Conditions: for % to pre-administration value: (1) Test compound post-i. pl. administration value: 50 μl of 0.1% (W/V) solution intraplantar to left hindlimb, measured on the following day, test compound alone; for % to pre-administration value: (2) Pregabalin post-oral administration value (Test compound administered on the day before): test compound i.pl. the day before plus Pregabalin 10 mg/kg orally, combined effect. As for the experimental part: The study was conducted using the same methods and evaluation criteria as in Test Example 1 with the exception of the administration route of the test compounds (see Test Example 1).
Using the von Frey filaments the test compound pre-administration values (pressure withdrawal threshold) were measured. Subsequently, 50 μl of a solution containing a test compound or vehicle control was intraplantarly injected to the left hindlimb using a microsyringe (intraplantar injection: i. pl. administration), and on the following day the withdrawal threshold was measured (effect of the test compound alone). Thereafter, 10 mg/kg of Pregabalin was orally administered and an hour later the withdrawal threshold was measured (combined effect).
Pregabalin was dissolved in distilled water. Physiological saline containing Tween 80 and ethanol was used as the vehicle control for the i. pl. administration.
The analgesic effect is a relative ratio when a pre-administration value calculated using the following numerical formula is 100%.

Data set [3] deals with micronucleus-containing immature erythrocyte. The data set can be described thus: Bone marrow micronucleus test. Conditions: subcutaneous, twice every 24 hours, Crl: CD male rats; dosage at which fatal cases start occurring and dosages up thereto. Format: in vivo, rat. How it is done:
Each compound of Examples 2, 16 and 37 dissolved in physiological saline containing ethanol and Tween 80 was subcutaneously administered to Crl: CD male rats twice every 24 hours and micronucleus inducing potential was evaluated.

Another data set has as its target T1, TRPV1 (Rattus norvegicus, UniProt O35433).
T1 construct: using cultured rat dorsal root ganglion cells which express TRPV1 abundantly; endogenous in cells; host or cells: primary culture of dorsal root ganglion cells from 7 day old Wistar rat
Briefly: TRPV1 agonist activity by intracellular calcium level (FLIPR method). It counts as cell-based. Conditions: rat dorsal root ganglion primary culture cells. From the text:
The test is to measure the elevation of intracellular calcium level as the indicator of TRPV1 agonist activity of a test compound using cultured rat dorsal root ganglion cells which express TRPV1 abundantly, and carried out in accordance with the method of Jerman et al. (Jerman, J. C. et al., Comparison of effects of anandamide at recombinant and endogenous rat vanilloid receptors. Br J Anaesth, 2002. 89(6): p. 882-7). More specifically, the dorsal root ganglion was removed from a 7 day old Wistar rat, and the cells were isolated by collagenase-trypsin treatment. Subsequently, the primary cells was cultured in a CO2 incubator controlled at 5% CO2 and 37° C. for 2 days. The culture medium used was Neurobasal™ medium supplemented with L-glutamine, nerve growth factor, N-2-Supplement, Penicillin-Streptomycin, 5-Fluoro-2′-deoxyuridine (culture day 1 only) were added to.
FLIPR^TETRA system (Molecular Devices Corp.) was used to measure the intracellular calcium concentration. As an indicator of TRPV1 agonistic activity, the fluorescence intensity elevation was monitored when a test compound is applied to the rat dorsal root ganglion primary culture cells loaded with a calcium-sensitive fluorescent reagent.

The test system of data set [4] is eye of a Std: ddy male mouse. Briefly: Pungency: eye-wiping test. It counts as in vivo. The conditions noted are these: 10 μg/ml, one drop to mouse eye, counted every minute up to 5 minutes. How it is done: The test is to examine the pungency of the compound of the present invention, and was carried out in accordance with the method by Jancso et al. [Acta. Physiol. Acad. Sci. Hung., 19, 113-131 (1961)] and the method by Szallasi et al. [Brit. J. Pharmacol., 119, 283-290 (1996)]. Specifically, the test compounds were dissolved in physiological saline containing 5% Tween 80 and 5% ethanol to give each (10 or 30 μg/ml) concentration, and one drop of the obtained solution was applied to the eye of a Std: ddy male mouse (5 mice per group, body weight 20 to 30 g) and the number of the protective wiping behavior with the front paws was counted every minute up to 5 minutes after the administration. Then, the average counts in each minute was calculated and the maximum number was defined as the representative value. Further, as vehicle control, the same test was carried out using physiological saline containing 5% Tween 80 and 5% ethanol.

Setting [5] is: read-out: Value (%) when fluorescence intensity for capsaicin (1 μM) is 100%, 1 μM.
The mark [6] stands for this setting: 1 μM, read-out: Value (%) when fluorescence intensity for capsaicin (1 μM) is 100%.

T1 sequence (O35433 whole entry): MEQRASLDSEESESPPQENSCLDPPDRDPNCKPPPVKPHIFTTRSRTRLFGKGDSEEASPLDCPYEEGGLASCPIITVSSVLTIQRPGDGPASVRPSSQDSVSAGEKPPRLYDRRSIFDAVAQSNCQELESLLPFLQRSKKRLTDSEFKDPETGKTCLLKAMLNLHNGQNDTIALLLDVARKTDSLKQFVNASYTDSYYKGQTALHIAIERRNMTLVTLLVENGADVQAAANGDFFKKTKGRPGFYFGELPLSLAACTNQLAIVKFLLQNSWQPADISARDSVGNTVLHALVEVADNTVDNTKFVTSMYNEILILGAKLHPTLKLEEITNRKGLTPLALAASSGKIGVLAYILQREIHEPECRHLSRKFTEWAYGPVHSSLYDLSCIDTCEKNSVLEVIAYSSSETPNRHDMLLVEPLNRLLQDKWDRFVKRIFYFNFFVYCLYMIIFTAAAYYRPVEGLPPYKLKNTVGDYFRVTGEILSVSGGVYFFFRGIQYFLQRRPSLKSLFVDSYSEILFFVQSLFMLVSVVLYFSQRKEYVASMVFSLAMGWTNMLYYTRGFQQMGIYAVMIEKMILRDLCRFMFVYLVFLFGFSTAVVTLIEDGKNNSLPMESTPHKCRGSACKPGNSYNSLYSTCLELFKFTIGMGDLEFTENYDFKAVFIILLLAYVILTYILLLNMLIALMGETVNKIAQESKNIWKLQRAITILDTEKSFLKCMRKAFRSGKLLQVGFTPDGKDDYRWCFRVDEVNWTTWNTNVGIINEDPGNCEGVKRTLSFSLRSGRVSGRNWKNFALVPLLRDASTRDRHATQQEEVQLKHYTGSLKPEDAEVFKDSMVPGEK

For the compound `COc1cc(CNC(=O)C2CN(C(=O)O[C@H]3CC[C@@H](C(C)(C)C)CC3)C2)ccc1O` [Example 16], in data set [1], the “% to pre-administration value (withdrawal threshold)” value is 218%. In addition, in data set [2], the “% to pre-administration value: (1) Test compound post-i. pl. administration value” stood at 200%. Also, in data set [2] (measured an hour later), the “% to pre-administration value: (2) Pregabalin post-oral administration value (Test compound administered on the day before)” value is 223%. Besides, the micronucleus inducing potential entry in data set [3] was “no micronucleus inducing potential”. On TRPV1 (setting [5]), the Emax at 1 µM turned out to be 84%.
On to `COc1cc(CNC(=O)C2CCN(C(=O)O[C@H]3CCCC[C@H]3C)CC2)ccc1O` [Example 38, (1S,2R)-2-methylcyclohexyl 4-(4-hydroxy-3-methoxybenzylcarbamoyl)-piperidine-1-carboxylate], for which the “% to pre-administration value (withdrawal threshold)” value in data set [1] stood at 243%. Besides, the Emax at 1 µM at TRPV1 (setting [5]) came out at 97%.
Consider `COc1cc(CNC(=O)C2CCN(C(=O)O[C@H]3CCC[C@H](C)C3)CC2)ccc1O` [Example 36, (1S,3S)-3-methylcyclohexyl 4-(4-hydroxy-3-methoxybenzylcarbamoyl)-piperidine-1-carboxylate], for which, in data set [1], the “% to pre-administration value (withdrawal threshold)” value is reported as 209%. Also, the “Value (%) when fluorescence intensity for capsaicin (1 μM) is 100%” value (“Value (%) when fluorescence intensity” below) on TRPV1 (1 μM) stood at 104%.
As to `CC[C@H]1CC[C@@H](OC(=O)N2CCC(C(=O)NCc3ccc(O)c(OC)c3)CC2)CC1` [Example 1, cis-4-ethylcyclohexyl 4-(4-hydroxy-3-methoxybenzylcarbamoyl)-piperidine-1-carboxylate], the “% to pre-administration value (withdrawal threshold)” value in data set [1] was 220%. Also, the Emax at 1 µM at TRPV1 (setting [5]) was 87%.
In the case of `COc1cc(CNC(=O)C2CCN(C(=O)O[C@@H]3CCCC[C@@H]3C)CC2)ccc1O` [Example 37, (1R,2S)-2-methylcyclohexyl 4-(4-hydroxy-3-methoxybenzylcarbamoyl)-piperidine-1-carboxylate], in data set [1], the “% to pre-administration value (withdrawal threshold)” value was found to be 236%. Also, the “% to pre-administration value: (1) Test compound post-i. pl. administration value” in data set [2] is 169%. In addition, the “% to pre-administration value: (2) Pregabalin post-oral administration value (Test compound administered on the day before)” value in data set [2] (measured an hour later) turned out to be 219%. Also, in data set [3], the micronucleus inducing potential result was “no micronucleus inducing potential”. The “Value (%) when fluorescence intensity” value at TRPV1 (1 μM) was determined as 101%.
As for `CCC1(CC)CCC(OC(=O)N2CC(C(=O)NCc3ccc(O)c(OC)c3)C2)CC1` [Example 14, 4,4-diethylcyclohexyl 3-(4-hydroxy-3-methoxybenzylcarbamoyl)-azetidine-1-carboxylate], the “% to pre-administration value (withdrawal threshold)” value in data set [1] was determined as 241%. Moreover, the Emax at 1 µM at TRPV1 (setting [6]) is 78%.
Take `CC[C@H]1CC[C@H](OC(=O)N2CCC(C(=O)NCc3ccc(O)c(OC)c3)CC2)CC1` [Example 2]: the micronucleus inducing potential entry in data set [3] is reported as “no micronucleus inducing potential”. At TRPV1 (setting [5]), the Emax at 1 µM was 84%.
As for `COc1cc(CNC(=O)C2CCN(C(=O)O[C@@H]3CCC[C@@H](C)C3)CC2)ccc1O` [Example 35, (1R,3R)-3-methylcyclohexyl 4-(4-hydroxy-3-methoxybenzylcarbamoyl)-piperidine-1-carboxylate], in data set [1], the “% to pre-administration value (withdrawal threshold)” value came to 183%. For the same compound, the Emax at 1 µM on TRPV1 (setting [6]) was found to be 86%.
`COc1cc(CNC(=O)C2CCN(C(=O)OC3CCC(C)(C)CC3)CC2)ccc1O` [Example 8] registered a melting point of 111 °C. In addition, in data set [1], the “% to pre-administration value (withdrawal threshold)” value was 191%. Besides, in data set [2], the “% to pre-administration value: (1) Test compound post-i. pl. administration value” is recorded as 197%. In addition, in data set [2] (measured an hour later), the “% to pre-administration value: (2) Pregabalin post-oral administration value (Test compound administered on the day before)” value came to 244%. In addition, the Emax at 1 µM at TRPV1 (setting [6]) was determined as 96%.
On to `CC(C)C[C@H](CN)CC(=O)O` [Pregabalin, reference compound], for which the “% to pre-administration value: (2) Pregabalin post-oral administration value (vehicle control administered on the day before)” value in data set [2] (vehicle i.pl. the day before, Pregabalin 10 mg/kg orally, measured an hour later, Pregabalin alone) is given as 125%.
With `COc1cc(CNC(=O)CCCC/C=C/C(C)C)ccc1O` [Capsaicin, (E)-8-methyl-N-vanillyl-6-nonenamide, reference compound], the “% to pre-administration value (withdrawal threshold)” value in data set [1] is recorded as 228%. In addition, the “Representative value of the counts of protective wiping behavior (Maximum counts, counts/min)” value in data set [4] is 20.0 counts/min; in data set [4] (listed as capsaicin), “vigorous wiping behavior was observed”. Besides, on TRPV1 (1 μM), the “Value (%) when fluorescence intensity” value was determined as 100%.
